For 47 compounds, IC50 results are on record in patent US20060264460A1 (Wyeth, priority 2005, published 2006).

In general, IC50 refers to the concentration that gives 50% inhibition. High values mean lower potency, low ones higher potency.

Some results are limits rather than exact numbers.

The target of this assay is T1, human Cot/Tpl2 kinase (Homo sapiens, UniProt P41279).
T1 construct: human Cot/Tpl2 kinase construct encoding residues 30-398; 6His (N); made in house; host or cells: Sf9 insect cells, baculovirus system (BD Biosciences)
T1 sequence (P41279 30-398): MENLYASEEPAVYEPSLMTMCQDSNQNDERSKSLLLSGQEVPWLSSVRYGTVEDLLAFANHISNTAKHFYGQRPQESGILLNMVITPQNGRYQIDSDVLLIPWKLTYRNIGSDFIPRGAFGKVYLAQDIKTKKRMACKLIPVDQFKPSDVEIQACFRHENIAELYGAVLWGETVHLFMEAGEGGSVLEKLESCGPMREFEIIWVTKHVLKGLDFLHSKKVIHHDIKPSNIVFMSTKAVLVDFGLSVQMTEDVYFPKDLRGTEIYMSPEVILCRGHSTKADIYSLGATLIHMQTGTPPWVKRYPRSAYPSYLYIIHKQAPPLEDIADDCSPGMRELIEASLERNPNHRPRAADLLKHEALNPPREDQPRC
Description: Tpl2/Cot kinase assay: GST-MEK1 phosphorylation detected by ELISA (DELFIA Eu). Type of assay: biochemical. The conditions noted are these: Tpl2/Cot kinase, GST-MEK1 substrate, 50 uM ATP. In outline: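 His-tagged human Tpl2 from Sf9 cells, Ni-affinity and size-exclusion purified (monomer). 0.4 nM Tpl2 with 35 nM GST-MEK1, 50 uM ATP, MOPS pH 7.2, 1% DMSO, 1 h at 30° C; EDTA stop. MEK1 Ser217/221 phosphorylation detected by anti-phospho-MEK1 and Eu-labelled secondary ELISA; IC50 fitted.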
On the technique in general: An ELISA detects its analyte on a solid surface through an enzyme-linked reagent.
As to `N#Cc1cnc2c(Cl)cc(NCc3cn(Cc4ccccn4)cn3)cc2c1Nc1ccc(F)c(Cl)c1` [Example 786], the IC50 stood at 41 nM.
Compound `N#Cc1cnc2c(Cl)cc(NCc3cn(Cc4ccncc4)cn3)cc2c1Nc1ccc(F)c(Cl)c1` [Example 787] registered an IC50 of 5.3 nM.
In the case of `CN(C)C(=O)Cn1cc(CNc2cc(Cl)c3ncc(C#N)c(Nc4ccc(F)c(Cl)c4)c3c2)nn1` [Example 788] it was 5 nM; in that of `CN(C)C(=O)CCn1cc(CNc2cc(Cl)c3ncc(C#N)c(Nc4ccc(F)c(Cl)c4)c3c2)nn1` [Example 789], 10 nM; in that of `CN1CC(CCn2cc(CNc3cc(Cl)c4ncc(C#N)c(Nc5ccc(F)c(Cl)c5)c4c3)nn2)N(C)C1=O` (centres unmarked) [Example 790], 6.1 nM.
The same measure for `CCN1CC(CCn2cc(CNc3cc(Cl)c4ncc(C#N)c(Nc5ccc(F)c(Cl)c5)c4c3)nn2)N(c2ccccc2)C1=O` (centres unmarked) [Example 791]: 25 nM; for `CCN1CC(CCn2cc(CNc3cc(Cl)c4ncc(C#N)c(Nc5ccc(F)c(Cl)c5)c4c3)nn2)N(c2ccccc2)C1=S` (centres unmarked) [Example 792]: 130 nM; for `CN1CCCN(CCCn2cc(CNc3cc(Br)c4ncc(C#N)c(Nc5ccc(F)c(Cl)c5)c4c3)nn2)CC1` [Example 793]: 70 nM.
In the case of `CN1CCCN(CCCn2cc(CNc3cc(Cl)c4ncc(C#N)c(Nc5ccc(F)c(Cl)c5)c4c3)nn2)CC1` [Example 794] it was 48 nM; in that of `CN1CCN(CCCn2cc(CNc3cc(Br)c4ncc(C#N)c(Nc5ccc(F)c(Cl)c5)c4c3)nn2)CC1` [Example 795], 29 nM.
As for `CN1CCN(CCCn2cc(CNc3cc(Cl)c4ncc(C#N)c(Nc5ccc(F)c(Cl)c5)c4c3)nn2)CC1` [Example 796], the IC50 was determined as 39 nM.
The same measure for `N#Cc1cnc2c(Cl)cc(NCC(O)CO)cc2c1Nc1ccc(F)c(Cl)c1` (centres unmarked) [Example 797]: 590 nM; for `N#Cc1cnc2c(Br)cc(NCC(=O)O)cc2c1Nc1ccc(F)c(Cl)c1` [Example 798]: 140 nM.
The same measure for `N#Cc1cnc2c(Br)cc(NCc3cn(C4CCCC4)cn3)cc2c1Nc1ccc(F)c(Cl)c1` [Example 799]: 230 nM.
Regarding `CC1CC(C)CN(CCCn2cc(CNc3cc(Cl)c4ncc(C#N)c(Nc5ccc(F)c(Cl)c5)c4c3)nn2)C1` (centres unmarked) [Example 800], 150 nM corresponded to half-maximal inhibition (IC50). Against the preceding compound, the IC50 is about 1.5-fold lower.
For `CN(CCCn1cc(CNc2cc(Cl)c3ncc(C#N)c(Nc4ccc(F)c(Cl)c4)c3c2)nn1)C1CCCCC1` [Example 801], the IC50 came out at 1.8 nM. Compared with the last compound, the IC50 is about 83-fold lower.
In the case of `CC(=O)Nc1ccc(-n2cc(CNc3cc(Cl)c4ncc(C#N)c(Nc5ccc(F)c(Cl)c5)c4c3)nn2)cc1` [Example 802] it was 35 nM.
In the case of `N#Cc1cnc2c(Cl)cc(NC3CCCC3n3cc(CCO)nn3)cc2c1Nc1ccc(F)c(Cl)c1` (centres unmarked) [Example 803] it was 67 nM; in that of `CC(C)n1cnc(CNc2cc(Br)c3ncc(C#N)c(Nc4ccc(F)c(Cl)c4)c3c2)c1` [Example 804], 68 nM; in that of `N#Cc1cnc2c(Br)cc(NCc3cn(COCc4ccccc4)nn3)cc2c1Nc1ccc(F)c(Cl)c1` [Example 805], > 3000 nM.
`CC(CNc1cc(Cl)c2ncc(C#N)c(Nc3ccc(F)c(Cl)c3)c2c1)c1ccncc1` (centres unmarked) [Example 806] gave an IC50 of 200 nM.
In the case of `N#Cc1cnc2c(Cl)cc(NCc3cn(COCc4ccccc4)nn3)cc2c1Nc1ccc(F)c(Cl)c1` [Example 807], the half-inhibitory concentration (IC50) is > 3000 nM.
In the case of `CCN1CCC[C@H]1CNc1cc(Cl)c2ncc(C#N)c(Nc3ccc(F)c(Cl)c3)c2c1` [Example 809] it was 330 nM; in that of `CC(=O)N1CCC[C@H]1CNc1cc(Cl)c2ncc(C#N)c(Nc3ccc(F)c(Cl)c3)c2c1` [Example 810], 54 nM.
In the case of `CCN(C[C@@H]1CCCN1CC)c1cc(Cl)c2ncc(C#N)c(Nc3ccc(F)c(Cl)c3)c2c1` [Example 811] it was 1200 nM; in that of `CC1(C)OC[C@H](CNc2cc(Cl)c3ncc(C#N)c(Nc4ccc(F)c(Cl)c4)c3c2)O1` [Example 812], 200 nM.
In the case of `CC(C)NC(=O)Cn1cc(CNc2cc(Cl)c3ncc(C#N)c(Nc4ccc(F)c(Cl)c4)c3c2)nn1` [Example 813] it was 3.5 nM; in that of `N#Cc1cnc2c(Cl)cc(NCc3cn(CC(=O)N4CCCCCC4)nn3)cc2c1Nc1ccc(F)c(Cl)c1` [Example 814], 4.6 nM.
The compound `N#Cc1cnc2c(Cl)cc(NCc3cn(CC(=O)N4CCCCCCC4)nn3)cc2c1Nc1ccc(F)c(Cl)c1` [Example 815] registered a concentration for half-maximal inhibition (IC50) of 5.3 nM.
In the case of `COCCNC(=O)Cn1cc(CNc2cc(Cl)c3ncc(C#N)c(Nc4ccc(F)c(Cl)c4)c3c2)nn1` [Example 816] it was 15 nM; in that of `CN1CCCC1CCNC(=O)Cn1cc(CNc2cc(Cl)c3ncc(C#N)c(Nc4ccc(F)c(Cl)c4)c3c2)nn1` (centres unmarked) [Example 817], 6.9 nM; in that of `CN(C)CCNC(=O)Cn1cc(CNc2cc(Cl)c3ncc(C#N)c(Nc4ccc(F)c(Cl)c4)c3c2)nn1` [Example 818], 6.8 nM.
The same measure for `N#Cc1cnc2c(Cl)cc(NCc3cn(CC(=O)NCc4cccnc4)nn3)cc2c1Nc1ccc(F)c(Cl)c1` [Example 819]: 0.8 nM; for `N#Cc1cnc2c(Cl)cc(NCc3cn(CC(=O)NCCN4CCOCC4)nn3)cc2c1Nc1ccc(F)c(Cl)c1` [Example 820]: 14 nM; for `N#Cc1cnc2c(Cl)cc(NCc3cn(CC(=O)Nc4cccnc4)nn3)cc2c1Nc1ccc(F)c(Cl)c1` [Example 821]: 2.7 nM.
On to `CN1CCN(C(=O)Cn2cc(CNc3cc(Cl)c4ncc(C#N)c(Nc5ccc(F)c(Cl)c5)c4c3)nn2)CC1` [Example 822], for which the concentration for half-maximal inhibition (IC50) is 13 nM.
`CN1CCCC1CCn1cc(CN(Cc2cn(CCC3CCCN3C)nn2)c2cc(Br)c3ncc(C#N)c(Nc4ccc(F)c(Cl)c4)c3c2)nn1` (centres unmarked) [Example 823] yielded an IC50 of 860 nM.
On to `N#Cc1cnc2c(Cl)cc(NCC3CCNCC3)cc2c1Nc1ccc(F)c(Cl)c1` [Example 824], for which it took 1240 nM to reach half-maximal inhibition (IC50).
In the case of `CN1CCC(Cn2cc(CNc3cc(Cl)c4ncc(C#N)c(Nc5ccc(F)c(Cl)c5)c4c3)nn2)CC1` [Example 825] it was 37 nM; in that of `CCN1CCC(Cn2cc(CNc3cc(Cl)c4ncc(C#N)c(Nc5ccc(F)c(Cl)c5)c4c3)nn2)CC1` [Example 826], 35 nM; in that of `CC(C)N1CCC(Cn2cc(CNc3cc(Cl)c4ncc(C#N)c(Nc5ccc(F)c(Cl)c5)c4c3)nn2)CC1` [Example 827], 11 nM.
The same measure for `CN(C)C(=O)N1CCC(Cn2cc(CNc3cc(Cl)c4ncc(C#N)c(Nc5ccc(F)c(Cl)c5)c4c3)nn2)CC1` [Example 828]: 2.6 nM; for `CN(C)C(=O)N1CCC(CCn2cc(CNc3cc(Cl)c4ncc(C#N)c(Nc5ccc(F)c(Cl)c5)c4c3)nn2)CC1` [Example 830]: 19 nM; for `CCNC(=O)N1CCC(CCn2cc(CNc3cc(Cl)c4ncc(C#N)c(Nc5ccc(F)c(Cl)c5)c4c3)nn2)CC1` [Example 831]: 9.3 nM.
The same measure for `CC(=O)N1CCC(CCn2cc(CNc3cc(Cl)c4ncc(C#N)c(Nc5ccc(F)c(Cl)c5)c4c3)nn2)CC1` [Example 832]: 1.2 nM.
The compound `N#Cc1cnc2c(Br)cc(NCc3cn(CCOC(N)=O)nn3)cc2c1Nc1ccc(F)c(Cl)c1` [Example 833] had an IC50 of 9 nM.
In turn, `CN(C)C(=O)Cn1cc(CNc2cc(Br)c3ncc(C#N)c(Nc4ccc(F)c(Cl)c4)c3c2)nn1` [Example 834] showed a concentration for half-maximal inhibition (IC50) of 14 nM. This IC50 lies about 1.6-fold higher than the previous one.
